Experiments:
[1] = tested on: Erysiphe polygoni; assay: Spore germination test; type: cell-based; details: EP, 48 hours
Outline: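 Compound in acetone was mixed into water agar at final 40, 10, 2.5 and 1 ppm and poured into quadrant dishes. Quadrants received spore suspension, while Erysiphe polygoni and Uromyces phaseoli spores were brushed on from infected leaves. After 48 h at 24 °C, the percentage of germinated spores was converted to a germination rating.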

[2] = tested on: Alternaria solani; assay: Mycelial growth test; type: cell-based; details: Alternaria solani, 72 h, AS, read-out: Percent Fungus Growth Inhibition

Row | SMILES | Spore Germination Rating ([1]; 1.0 ppm) | Spore Germination Rating ([1]; 2.5 ppm) | Spore Germination Rating ([1]; 10 ppm) | Spore Germination Rating ([1]; 40 ppm) | inhibition at 5 ppm [2] | inhibition at 10 ppm [2] | inhibition at 20 ppm [2] | inhibition at 40 ppm [2]
1 | CC(=O)Nc1cccc(Oc2nsnc(Cl)c2=O)c1 [Compound 42, 3-[(3-N--acetylamino)-phenoxy]-5-chloro-4H--1,2,6-thiadiazin-4-one] | 4 (80-100) | 4 (80-100) | 4 (80-100) | 4 (80-100) | 24% | 33% | 52% | 90%
2 | O=c1c(Cl)nsnc1Oc1c(Cl)cccc1Cl [Compound 18, 3-chloro-5-(2,6-dichlorophenoxy)-4H--1,2,6-thiadiazin-4-one] | 2 (40-60) | 1 (10-40) | 0 (0-10) | 0 (0-10) | 69% | 90% | 90% | 84%
3 | Cc1cc(Cl)c(Oc2nsnc(Cl)c2=O)cc1C [Compound 58, 3-chloro-5-[(2-chloro-4,5-dimethyl)phenoxy]-4H--1,2,6-thiadiazin-4-one] | 4 (80-100) | 0 (0-10) | 0 (0-10) | 0 (0-10) | 48% | 48% | 43% | 43%
4 | O=c1c(Cl)nsnc1Oc1cccc(Cl)c1Cl [Compound 19, 3-chloro-5-(2,3-dichlorophenoxy)-4H--1,2,6-thiadiazin-4-one] | 3 (60-80) | 1 (10-40) | 0 (0-10) | 0 (0-10) | 62% | 62% | 90% | 100%
5 | O=c1c(Cl)nsnc1Oc1ccc(Cl)cc1 [Compound 12, 3-chloro-5-(4-chlorophenoxy)-4H--1,2,6-thiadiazin-4-one] | 4 (80-100) | 4 (80-100) | 2 (40-60) | 0 (0-10) | 31% | 31% | 63% | 100%
6 | O=c1c(Cl)nsnc1Oc1ccc(O)cc1 [Compound 35, 3-chloro-5-(4-hydroxyphenoxy)-4H-1,2,6-thiadiazin-4-one] | 4 (80-100) | 4 (80-100) | 2 (40-60) | 1 (10-40) | 90% | 100% | 100% | 100%
7 | O=C(O)Cc1ccccc1Oc1nsnc(Cl)c1=O [Compound 45, 3-(2-carboxymethylphenoxy)-5-chloro-4H--1,2,6-thiadiazin-4-one] | 4 (80-100) | 4 (80-100) | 4 (80-100) | 2 (40-60) | 4% | 0% | 25% | 54%
8 | CCCCOc1ccc(Oc2nsnc(Cl)c2=O)cc1 [Compound 6, 3-chloro-5-(4-n-butoxyphenoxy)-4H--1,2,6-thiadiazin-4-one] | 0 (0-10) | 0 (0-10) | 0 (0-10) | 0 (0-10) | 8% | 0% | 13% | 21%
9 | N#Cc1ccc(Oc2nsnc(Cl)c2=O)cc1 [Compound 10, 3-chloro-5-(4-cyanophenoxy)-4H--1,2,6-thiadiazin-4-one] | 2 (40-60) | 2 (40-60) | 2 (40-60) | 1 (10-40) | 54% | 79% | 92% | 92%
10 | Cc1cc(Oc2nsnc(Cl)c2=O)ccc1Cl [Compound 54, 3-chloro-5-(4-chloro-3-methylphenoxy)-4H--1,2,6-thiadiazin-4-one] | 2 (40-60) | 0 (0-10) | 0 (0-10) | 0 (0-10) | 70% | 100% | 100% | 100%
11 | C[S+]([O-])c1ccc(Oc2nsnc(Cl)c2=O)cc1 (centres unmarked) [Compound 40, 3-chloro-5-[(4-methylsulfinyl)phenoxy]-4H-1,2,6,-thiadiazin-4-one] | 4 (80-100) | 4 (80-100) | 4 (80-100) | 1 (10-40) | 54% | 75% | 92% | 100%
12 | O=c1c(Cl)nsnc1Oc1ccc(Cl)cc1Cl [Compound 17, 3-chloro-5-(2,4-dichlorophenoxy)-4H--1,2,6-thiadiazin-4-one] | 3 (60-80) | 1 (10-40) | 0 (0-10) | 0 (0-10) | 79% | 72% | 93% | 100%
13 | O=c1c(Cl)nsnc1Oc1cc(Cl)cc(Cl)c1 [Compound 20, 3-chloro-5-(3,5-dichlorophenoxy)-4H--1,2,6-thiadiazin-4-one] | 3 (60-80) | 0 (0-10) | 0 (0-10) | 0 (0-10) | 59% | 59% | 59% | 83%
